Experimental data: US20260184707A1, “PHARMACEUTICAL COMPOUNDS FOR THE TREATMENT OF COMPLEMENT MEDIATED DISORDERS” (ALEXION PHARMACEUTICALS, INC., priority 2022, published 2026)

Target: T1, Human complement C1s enzyme (Homo sapiens, UniProt P09871)
T1 construct: purified from human serum, Complement Technology, Inc; purchased Complement Technology, Inc; host or cells: human serum (plasma-derived native protein)
T1 sequence (P09871 438-688 limits assumed): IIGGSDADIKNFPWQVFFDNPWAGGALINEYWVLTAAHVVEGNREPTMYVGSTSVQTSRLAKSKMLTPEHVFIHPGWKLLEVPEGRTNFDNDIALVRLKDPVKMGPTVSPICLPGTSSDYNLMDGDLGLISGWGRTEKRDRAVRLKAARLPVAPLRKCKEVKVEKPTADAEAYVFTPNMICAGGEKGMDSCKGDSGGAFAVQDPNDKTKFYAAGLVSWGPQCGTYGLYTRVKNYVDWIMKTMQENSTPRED
T1 sequence (P09871 16-437 partner limits assumed): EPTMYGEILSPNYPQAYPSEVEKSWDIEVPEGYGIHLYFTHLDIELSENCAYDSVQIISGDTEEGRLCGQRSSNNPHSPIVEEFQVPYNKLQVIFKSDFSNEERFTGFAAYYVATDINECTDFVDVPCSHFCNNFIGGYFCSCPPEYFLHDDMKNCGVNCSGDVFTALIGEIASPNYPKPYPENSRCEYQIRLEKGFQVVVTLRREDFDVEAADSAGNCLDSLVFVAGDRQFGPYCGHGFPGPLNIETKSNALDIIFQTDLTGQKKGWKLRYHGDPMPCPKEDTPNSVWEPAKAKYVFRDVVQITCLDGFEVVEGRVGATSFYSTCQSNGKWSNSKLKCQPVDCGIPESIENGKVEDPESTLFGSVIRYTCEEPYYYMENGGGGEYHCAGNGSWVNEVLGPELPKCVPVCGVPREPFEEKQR
Experiment: Human C1s enzyme assay
Assay type: biochemical
Conditions: human complement C1s enzyme 1.16 nM, substrate Z-L-Lys-SBzl, A405; read-out: IC50 (Stars)
Summary of the method: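 Thioesterase activity followed colorimetrically (DTNB, A405, 30-s reads) using 100 μM Z-L-Lys-SBzl substrate. Enzyme, human serum-derived C1s at 1.16 nM final, was incubated with test compound for 5 min, room temperature, pH 7.5 Tris buffer with 1 M NaCl. Rate-versus-concentration data fitted by nonlinear regression for IC50.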

SMILES | IC50 [nM]
C[C@@H](Nc1cnc(N2CCCCCC2)n(CC(=O)NCc2cc3cnccc3[nH]2)c1=O)c1ccc2oc3ccccc3c2c1 [Compound 388, (R)-N-((1H-pyrrolo[3,2-c]pyridin-2-yl)methyl)-2-(2-(azepan-1-yl)-5-((1-(dibenzo [b,d]furan-2-yl)ethyl)amino)-6-oxopyrimidin-1(6H)-yl)-acetamide] | 100 to 1000
C[C@@H](Nc1cnc(N2CCN(C)CC2)n(CC(=O)NCc2cc3cnccc3[nH]2)c1=O)c1ccc2oc3ccccc3c2c1 [Compound 389, (R)-N-((1H-pyrrolo[3,2-c]pyridin-2-yl)methyl)-2-(5-((1-(dibenzo[b,d]furan-2-yl)ethyl)-amino)-2-(4-methylpiperazin-1-yl)-6-oxopyrimidin-1(6H)-yl)acetamide] | < 100
C[C@@H](Nc1nnc(-c2ccccc2F)n(CC(=O)NCc2cc3cnccc3[nH]2)c1=O)c1ccc2oc3ccccc3c2c1 [Compound 390, (R)—N-((1H-pyrrolo[3,2-c]pyridine-2-yl)methyl)-2-(6-((1-(dibenzo[b,d]furan-2-yl)ethyl)amino)-3-(2-fluorophenyl)-5-oxo-1,2,4-triazin-4(5H)-yl)acetamide] | < 100
Cc1ncc(-c2ncc(N[C@H](C)c3ccc4oc5ccccc5c4c3)c(=O)n2CC(=O)NCc2cc3cnccc3[nH]2)cn1 [Compound 391, (R)-N-((1H-pyrrolo[3,2-c]pyridin-2-yl)methyl)-2-(5-((1-(dibenzo[b,d]furan-2-yl)ethyl)-amino)-2′-methyl-6-oxo-[2,5′-bipyrimidin]-1(6H)-yl)acet-amide] | 100 to 1000
O=C(Cn1cncc(NC(=O)c2coc(-c3ccccc3)n2)c1=O)NCc1cc2cnccc2[nH]1 [Compound 392, N-(1-(2-(((1H-pyrrolo[3,2-c]pyridin-2-yl)methyl)amino)-2-oxoethyl)-6-oxo-1,6-dihydro-pyrimidin-5-yl)-2-phenyl-oxazole-4-carboxamide] | < 100
O=C(Cn1cncc(NC(=O)c2csc(-c3ccccc3)n2)c1=O)NCc1cc2cnccc2[nH]1 [Compound 393, N-(1-(2-(((1H-pyrrolo[3,2-c]pyridin-2-yl)methyl)amino)-2-oxoethyl)-6-oxo-1,6-dihydro-pyrimidin-5-yl)-2-phenyl-thiazole-4-carboxamide] | 100 to 1000
O=C(Cn1c(-c2ccccc2F)ncc(N[C@H]2CCc3ccccc32)c1=O)NCc1cc2cnccc2[nH]1 [Compound 394, (S)—N-((1H-pyrrolo[3,2-c]pyridine-2-yl)methyl)-2-(5-((2,3-dihydro-1H-inden-1-yl)amino)-2-(2-fluorophenyl)-6-oxopyrimidin-1(6H)-yl)acetamide] | < 100
O=C(Cn1c(-c2ccccc2)ncc(NS(=O)(=O)c2ccccc2)c1=O)NCc1cc2cnccc2[nH]1 [Compound 395, N-((1H-pyrrolo[3,2-c]pyridin-2-yl)methyl)-2-(6-oxo-2-phen-yl-5-(phenylsulfonamido)-pyrimidin-1(6H)-yl)acetamide] | > 1000
C[C@@H](Nc1cnc(-c2ccccc2F)n(CC(=O)NCc2cc3cnccc3[nH]2)c1=O)c1cc2c(cc1F)oc1ccccc12 [Compound 396, (R)-N-((1H-pyrrolo[3,2-c]pyridin-2-yl)methyl)-2-(5-((1-(3-fluorodibenzo[b,d]furan-2-yl)ethyl)amino)-2-(2-fluoro-phenyl)-6-oxopyrimidin-1(6H)-yl)acetamide] | < 100
C[C@@H](Nc1cnc(-n2cccc2)n(CC(=O)NCc2cc3cnccc3[nH]2)c1=O)c1ccc2oc3ccccc3c2c1 [Compound 397, (R)-N-((1H-pyrrolo[3,2-c]pyridin-2-yl)methyl)-2-(5-((1-(dibenzo[b,d]furan-2-yl)ethyl)-amino)-6-oxo-2-(1H-pyrrol-1-yl)pyrimidin-1(6H)-yl)acet-amide] | < 100
C[C@@H](Nc1cnc(N2CCCC(F)C2)n(CC(=O)NCc2cc3cnccc3[nH]2)c1=O)c1ccc2oc3ccccc3c2c1 (stereo partly drawn) [Compound 398, N-((1H-pyrrolo[3,2-c]pyridin-2-yl)methyl)-2-(5-(((R)-1-(dibenzo[b,d]furan-2-yl)ethyl)-amino)-2-(3-fluoropiperidin-1-yl)-6-oxopyrimidin-1(6H)-yl)-acetamide] | < 100
C[C@@H](Nc1cnc(N2CCCC(F)(F)C2)n(CC(=O)NCc2cc3cnccc3[nH]2)c1=O)c1ccc2oc3ccccc3c2c1 [Compound 399, (R)-N-((1H-pyrrolo[3,2-c]pyridin-2-yl)methyl)-2-(5-((1-(dibenzo[b,d]furan-2-yl)ethyl)-amino)-2-(3,3-difluoropiperi-din-1-yl)-6-oxopyrimidin-1(6H)-yl)acetamide] | < 100
C[C@@H](Nc1cnc(N2CCCC2=O)n(CC(=O)NCc2cc3cnccc3[nH]2)c1=O)c1ccc2oc3ccccc3c2c1 [Compound 400, (R)-N-((1H-pyrrolo[3,2-c]pyridin-2-yl)methyl)-2-(5-((1-(dibenzo[b,d]furan-2-yl)ethyl)-amino)-6-oxo-2-(2-oxopyr-rolidin-1-yl)pyrimidin-1(6H)-yl)acetamide] | < 100
C[C@@H](Nc1cnc(N2CCC(F)(F)C2)n(CC(=O)NCc2cc3cnccc3[nH]2)c1=O)c1ccc2oc3ccccc3c2c1 [Compound 401, (R)-N-((1H-pyrrolo[3,2-c]pyridin-2-yl)methyl)-2-(5-((1-(dibenzo[b,d]furan-2-yl)ethyl)-amino)-2-(3,3-difluoropyrroli-din-1-yl)-6-oxopyrimidin-1(6H)-yl)acetamide] | 100 to 1000
C[C@@H](Nc1cnc(N2CCCC(C(F)(F)F)C2)n(CC(=O)NCc2cc3cnccc3[nH]2)c1=O)c1ccc2oc3ccccc3c2c1 (stereo partly drawn) [Compound 402, N-((1H-pyrrolo[3,2-c]pyridin-2-yl)methyl)-2-(5-(((R)-1-(dibenzo[b,d]furan-2-yl)ethyl)-amino)-6-oxo-2-(3-(trifluoro-methyl)piperidin-1-yl)pyrimi-din-1(6H)-yl)acetamide] | 100 to 1000
O=C(Cn1c(-c2ccccc2F)ncc(NC2(c3ccc4oc5ccccc5c4c3)CC2)c1=O)NCc1cc2cnccc2[nH]1 [Compound 403, N-((1H-pyrrolo[3,2-c]pyridine-2-yl)methyl)-2-(5-((1-(dibenzo[b,d]furan-2-yl)cyclopropyl)amino)-2-(2-fluorophenyl)-6-oxopyrimidin-1(6H)-yl)acetamide] | < 100
Cc1ncc(N[C@H](C)c2ccc3oc4ccccc4c3c2)c(=O)n1C(C)C(=O)NCc1cc2cnccc2[nH]1 (stereo partly drawn) [Compound 404, N-((1H-pyrrolo[3,2-c]pyridin-2-yl)methyl)-2-(5-(((R)-1-(dibenzo[b,d]furan-2-yl)ethyl)-amino)-2-methyl-6-oxopyrimi-din-1(6H)-yl)propanamide] | > 1000
O=C(Cn1cncc(NC(=O)c2cnc(-c3ccccc3)o2)c1=O)NCc1cc2cnccc2[nH]1 [Compound 405, N-(1-(2-(((1H-pyrrolo[3,2-c]pyridin-2-yl)methyl)amino)-2-oxoethyl)-6-oxo-1,6-dihydro-pyrimidin-5-yl)-2-phenyl-oxazole-5-carboxamide] | < 100
Cc1ncc(NC(=O)c2csc(-c3ccccc3)n2)c(=O)n1CC(=O)NCc1cc2cnccc2[nH]1 [Compound 406, N-(1-(2-(((1H-pyrrolo[3,2-c]pyridine-2-yl)methyl)amino)-2-oxoethyl)-2-methyl-6-oxo-1,6-dihydropyrimidin-5-yl)-2-phenylthiazole-4-carboxamide] | 100 to 1000
C[C@@H](Nc1ncc(N2CCOCC2)n(CC(=O)NCc2cc3cnccc3[nH]2)c1=O)c1ccc2oc3ccccc3c2c1 [Compound 407, (R)—N-((1H-pyrrolo[3,2-c]pyridine-2-yl)methyl)-2-(3-((1-(dibenzo[b,d]furan-2-yl)ethyl)amino)-6-morpholino-2-oxopyrazin-1(2H)-yl)acetamide] | < 100
O=C(Cn1c(N2CCOCC2)ncc(NC(=O)c2cnc(-c3ccccc3)o2)c1=O)NCc1cc2cnccc2[nH]1 [Compound 408, N-(1-(2-(((1H-pyrrolo[3,2-c]pyridine-2-yl)methyl)amino)-2-oxoethyl)-2-morpholino-6-oxo-1,6-dihydropyrimidin-5-yl)-2-phenyloxazole-5-carboxamide] | < 100
O=C(Cn1c(N2CCOCC2)ncc(NC(=O)CCc2ccccc2)c1=O)NCc1cc2cnccc2[nH]1 [Compound 409, N-(1-(2-(((1H-pyrrolo[3,2-c]pyridin-2-yl)methyl)amino)-2-oxoethyl)-2-morpholino-6-oxo-1,6-dihydropyrimidin-5-yl)-3-phenylpropanamide] | < 100
O=C(Cn1c(N2CCOCC2)ncc(NC(=O)c2ccc(Oc3ccccc3)cc2)c1=O)NCc1cc2cnccc2[nH]1 [Compound 410, N-(1-(2-(((1H-pyrrolo[3,2-c]pyridin-2-yl)methyl)amino)-2-oxoethyl)-2-morpholino-6-oxo-1,6-dihydropyrimidin-5-yl)-4-phenoxybenzamide] | < 100
